Data as given in publication PMC9266351, “Degradation and Detoxification of Chlorophenols with Different Structure by LAC-4 Laccase Purified from White-Rot Fungus Ganoderma lucidum” (International Journal of Environmental Research and Public …, 2022).

Experiments:
Format in all cases: biochemical, Ganoderma lucidum
LAC-4 laccase [1] = system: T1, LAC-4 laccase; test: spectrophotometric oxidation at […] nm; non-linear Michaelis-Menten fit; details: 50 mM acetate pH 5.0, 30 °C; 0.1-1.0 mM substrate, 0.01 U/mL enzyme
T1 construct: native secreted enzyme purified from culture filtrate (GYP medium, CuSO4-induced; ammonium sulfate, anion exchange, hydrophobic chromatography); about 56 kDa by SDS-PAGE

LAC-4 laccase [2] = system: T1, LAC-4 laccase; test: degradation over […] min; Lineweaver-Burk plot; details: 50 mM acetate pH 5.0, 30 °C; 0.1-8 mM substrate, 1 U/mL enzyme
LAC-4 laccase [3] = system: T1, LAC-4 laccase; test: degradation over […] min; Lineweaver-Burk plot; details: 50 mM acetate pH 5.0, 30 °C; 0.1-8 mM substrate, 1 U/mL enzyme; remark: listed apart in the source
LAC-4 laccase [4] = system: T1, LAC-4 laccase; test: spectrophotometric oxidation at […] nm; non-linear Michaelis-Menten fit; details: 50 mM acetate pH 5.0, 30 °C; 0.01-0.06 mM substrate (all below Km), 0.01 U/mL enzyme
LAC-4 laccase [5] = system: T1, LAC-4 laccase; test: as above; details: 50 mM acetate pH 5.0, 30 °C; 0.01-0.1 mM substrate, 0.01 U/mL enzyme

## COc1ccccc1O [guaiacol]
LAC-4 laccase [1]
  Km: 97 µM

## Oc1c(Cl)cccc1Cl [2,6-DCP]
LAC-4 laccase [2]
  Km: 3.64 mM

## Oc1c(Cl)ccc(Cl)c1Cl [2,3,6-TCP]
LAC-4 laccase [3]
  Km: 4.88 mM

## COc1cccc(OC)c1O [2,6-DMP]
LAC-4 laccase [4]
  Km: 803 µM

## CCn1c(=NN=c2sc3cc(S(=O)(=O)O)ccc3n2CC)sc2cc(S(=O)(=O)O)ccc21 [ABTS]
LAC-4 laccase [5]
  Km: 75 µM
